Experimental data as given in publication PMC9489211, “Regulation of pulmonary surfactant by the adhesion GPCR GPR116/ADGRF5 requires a tethered agonist-mediated activation mechanism” (eLife, 2022).
Where a SMILES comes first, the peptide text is derived from it. Where no end group is shown, it is not given here. [ ]: non-standard residue; d: D form. Nle = CCCC[C@H](N)C(=O)O

Tests used:
[1] = molecular target: T1, full-length hGPR116 (HEK293 clone A6) (Homo sapiens, UniProt Q8IZF2); test: Calcium transient assay, full-length hGPR116 stably expressed in HEK293 (clone A6); assay type: cell-based; conditions: calcium transients, hFL clone A6, Figure 3-figure supplement 2 / Figure 7A
T1 construct: expressed in transfected cells
T1 sequence (Q8IZF2 22-1346): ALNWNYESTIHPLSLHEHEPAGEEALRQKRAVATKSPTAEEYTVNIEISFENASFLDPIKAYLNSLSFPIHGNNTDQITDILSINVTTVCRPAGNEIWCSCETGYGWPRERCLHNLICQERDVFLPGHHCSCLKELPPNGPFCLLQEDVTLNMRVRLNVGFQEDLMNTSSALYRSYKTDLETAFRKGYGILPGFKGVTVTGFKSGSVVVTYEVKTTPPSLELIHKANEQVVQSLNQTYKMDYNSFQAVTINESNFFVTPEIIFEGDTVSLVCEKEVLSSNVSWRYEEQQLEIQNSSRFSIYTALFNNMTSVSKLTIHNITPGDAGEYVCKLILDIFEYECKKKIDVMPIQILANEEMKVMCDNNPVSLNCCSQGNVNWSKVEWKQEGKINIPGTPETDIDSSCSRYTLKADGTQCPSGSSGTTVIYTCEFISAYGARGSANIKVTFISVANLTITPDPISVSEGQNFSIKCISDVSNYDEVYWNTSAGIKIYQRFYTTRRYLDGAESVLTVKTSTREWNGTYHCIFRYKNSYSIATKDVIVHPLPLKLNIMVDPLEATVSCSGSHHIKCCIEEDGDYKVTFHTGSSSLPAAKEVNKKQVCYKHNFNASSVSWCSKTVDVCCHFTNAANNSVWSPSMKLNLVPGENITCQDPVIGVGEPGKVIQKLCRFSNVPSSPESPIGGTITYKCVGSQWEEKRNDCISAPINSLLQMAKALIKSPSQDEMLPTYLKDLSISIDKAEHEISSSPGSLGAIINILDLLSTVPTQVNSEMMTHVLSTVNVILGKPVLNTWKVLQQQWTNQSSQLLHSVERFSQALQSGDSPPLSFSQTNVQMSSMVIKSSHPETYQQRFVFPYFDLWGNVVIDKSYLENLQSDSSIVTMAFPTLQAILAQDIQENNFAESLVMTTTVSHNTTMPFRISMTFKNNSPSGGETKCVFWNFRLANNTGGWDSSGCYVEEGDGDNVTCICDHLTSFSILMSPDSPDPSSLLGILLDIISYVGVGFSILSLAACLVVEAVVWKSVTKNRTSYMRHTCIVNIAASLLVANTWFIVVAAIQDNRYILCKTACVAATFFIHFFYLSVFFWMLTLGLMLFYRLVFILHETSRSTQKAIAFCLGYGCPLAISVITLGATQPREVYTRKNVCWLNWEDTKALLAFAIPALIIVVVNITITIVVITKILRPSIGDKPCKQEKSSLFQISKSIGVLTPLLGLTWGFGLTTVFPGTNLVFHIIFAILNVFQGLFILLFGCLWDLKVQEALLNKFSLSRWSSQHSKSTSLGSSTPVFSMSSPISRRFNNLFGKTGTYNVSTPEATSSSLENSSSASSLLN
Method: (§1) For some constructs, stable populations were generated by treating the cells with G418. After complete selection of resistant cells, these were used in assays. Stable HEK293 clones for full-length hGPR116 (clone A6) and mGPR116 (clone 3C) were described earlier ([Brown et al., 2017]).
(§2) HEK293 cells were seeded in 384-well plates (Greiner, #781946) at 30,000 cells/well. Medium was removed the following day and cells were loaded for 2 hr at 37°C, 5% CO2 with 20 µl Calcium 6 loading buffer (Molecular Devices, Cat# R8191): 1× HBSS (Gibco, Cat# 14065.049) containing 20 mM HEPES (Gibco, Cat#15630) and 2.5 mM probenecid (Sigma, Cat# P8761). Plates were then transferred to a FDSS7000 fluorescence plate reader (HAMAMATSU, Japan) and Ca^2+ responses were measured in real time using a CCD camera with excitation 480 nm/emission 540 nm. Prior to stimulation, baseline measurements were recorded over 5 s (Fmin). For stimulation, 20 µl of test compounds prepared 2× in HBSS containing 20 mM HEPES were dispensed. Fluorescence was read over 1–1.5 min. Maximum fluorescence (Fmax) was determined and normalized to baseline. Data are reported as ∆F/F = (Fmax – Fmin)/Fmin. Adequate response of the endogenous M3R was verified for each transfection, using carbachol at 100 µM and following the same procedure as for the peptide activation.
(§3) Concentration response curves were analyzed using GraphPad Prism 9.2.0. Potency was determined using a nonlinear regression model with variable slope, and statistical significance was determined using a one-way ANOVA followed by Dunnett’s multiple comparison test or a TTEST for comparison of two data sets (*p<0.05, **p<0.01, ***p<0.001, ****p<0.0001, ns, not significant).

hCTFbax G1011K = molecular target: T2, hCTFbax G1011K (Homo sapiens, UniProt Q8IZF2, G1009K); test: Calcium transient assay, hCTFbax G1011K; assay type: cell-based; conditions: calcium transients, Figure 7C
T2 construct: tethered peptide (993 - 1008); expressed in transfected cells
T2 sequence (Q8IZF2 997-1346 G1009K): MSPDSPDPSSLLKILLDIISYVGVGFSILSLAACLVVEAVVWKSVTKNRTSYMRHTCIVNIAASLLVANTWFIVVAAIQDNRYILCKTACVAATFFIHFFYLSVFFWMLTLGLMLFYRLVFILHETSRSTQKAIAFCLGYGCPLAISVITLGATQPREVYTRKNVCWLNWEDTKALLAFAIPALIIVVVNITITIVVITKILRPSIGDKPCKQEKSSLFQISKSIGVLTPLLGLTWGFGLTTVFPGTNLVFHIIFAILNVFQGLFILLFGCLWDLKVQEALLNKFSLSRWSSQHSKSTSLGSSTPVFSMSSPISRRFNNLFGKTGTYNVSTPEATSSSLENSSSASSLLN
Method: The hCTFbax construct was generated independently of the mCTFbax, using a strategy (Nt deletion) based on emerging knowledge and appropriate for the planned studies, although no difference in functionality is expected between the two approaches. The hCTFbax mBS chimera was derived from this construct by gene synthesis. Other mutants of the human GPR116 CTF or full-length constructs were generated by site-directed mutagenesis using PCR-based techniques.
HEK293 cells were seeded in 384-well plates (Greiner, #781946) at 30,000 cells/well. […] Plates were then transferred to a FDSS7000 fluorescence plate reader (HAMAMATSU, Japan) and Ca^2+ responses were measured in real time using a CCD camera with excitation 480 nm/emission 540 nm. Prior to stimulation, baseline measurements were recorded over 5 s (Fmin). […] Fluorescence was read over 1–1.5 min. Maximum fluorescence (Fmax) was determined and normalized to baseline. […]
as §3

[2] = tested on: mouse GPR116 CTF (mCTF) single alanine mutants; test: IP1 accumulation, mCTF single alanine mutants of the tethered agonist stimulated with exogenous GAP; assay type: cell-based; conditions: transiently transfected HEK293, Figure 3E
Method: HEK293 cells were seeded in 12-well plates at a density of 1.5 × 10^5 cells per well and transiently transfected with plasmids expressing wild-type, wild-type mGPR116-FLAG, CTF-FLAG, or alanine mutants of CTF-FLAG. Then, 24 hr post transfection, media were removed and replaced with serum-free Modified Eagles Medium (MEM; Mediatech) containing 1 µCi/ml of 3H-myo-inositol (PerkinElmer Life Sciences). Also, 48 hr […], media were removed and replaced with serum-free media supplemented with 20 mM LiCl for 3 hr. For samples to be stimulated with GAPs, the peptides were added at the appropriate concentration when the media were replaced with that supplemented with LiCl. […] Columns were washed twice with distilled H2O, total inositol phosphates (IP) were eluted with 4.0 ml of 0.1 M formic acid and 1 M ammonium formate, and eluates containing accumulated inositol phosphates were counted in a liquid scintillation counter. Then, 50 μl of neutralized supernatant was counted in a liquid scintillation counter to measure total incorporated 3H-myo-inositol. Data are expressed as accumulated inositol phosphate over total incorporated 3H-myo-inositol. […]
IP1 accumulation was measured using the manufacturer’s instructions (IP-One, Cisbio 62IPAPEC). […] Plates were read at 665 and 620 nm on an EnVision Xcite Multilabel reader (PerkinElmer, # 2104-0020). […]

[3] = molecular target: T3, full-length mGPR116 (HEK293 clone 3C) (Mus musculus, UniProt G5E8Q8); test: Calcium transient assay, full-length mGPR116 stably expressed in HEK293 (clone 3C); assay type: cell-based; conditions: calcium transient assay, HEK293 clone 3C, Fig 3F
T3 construct: expressed in transfected cells
T3 sequence (G5E8Q8 22-1348): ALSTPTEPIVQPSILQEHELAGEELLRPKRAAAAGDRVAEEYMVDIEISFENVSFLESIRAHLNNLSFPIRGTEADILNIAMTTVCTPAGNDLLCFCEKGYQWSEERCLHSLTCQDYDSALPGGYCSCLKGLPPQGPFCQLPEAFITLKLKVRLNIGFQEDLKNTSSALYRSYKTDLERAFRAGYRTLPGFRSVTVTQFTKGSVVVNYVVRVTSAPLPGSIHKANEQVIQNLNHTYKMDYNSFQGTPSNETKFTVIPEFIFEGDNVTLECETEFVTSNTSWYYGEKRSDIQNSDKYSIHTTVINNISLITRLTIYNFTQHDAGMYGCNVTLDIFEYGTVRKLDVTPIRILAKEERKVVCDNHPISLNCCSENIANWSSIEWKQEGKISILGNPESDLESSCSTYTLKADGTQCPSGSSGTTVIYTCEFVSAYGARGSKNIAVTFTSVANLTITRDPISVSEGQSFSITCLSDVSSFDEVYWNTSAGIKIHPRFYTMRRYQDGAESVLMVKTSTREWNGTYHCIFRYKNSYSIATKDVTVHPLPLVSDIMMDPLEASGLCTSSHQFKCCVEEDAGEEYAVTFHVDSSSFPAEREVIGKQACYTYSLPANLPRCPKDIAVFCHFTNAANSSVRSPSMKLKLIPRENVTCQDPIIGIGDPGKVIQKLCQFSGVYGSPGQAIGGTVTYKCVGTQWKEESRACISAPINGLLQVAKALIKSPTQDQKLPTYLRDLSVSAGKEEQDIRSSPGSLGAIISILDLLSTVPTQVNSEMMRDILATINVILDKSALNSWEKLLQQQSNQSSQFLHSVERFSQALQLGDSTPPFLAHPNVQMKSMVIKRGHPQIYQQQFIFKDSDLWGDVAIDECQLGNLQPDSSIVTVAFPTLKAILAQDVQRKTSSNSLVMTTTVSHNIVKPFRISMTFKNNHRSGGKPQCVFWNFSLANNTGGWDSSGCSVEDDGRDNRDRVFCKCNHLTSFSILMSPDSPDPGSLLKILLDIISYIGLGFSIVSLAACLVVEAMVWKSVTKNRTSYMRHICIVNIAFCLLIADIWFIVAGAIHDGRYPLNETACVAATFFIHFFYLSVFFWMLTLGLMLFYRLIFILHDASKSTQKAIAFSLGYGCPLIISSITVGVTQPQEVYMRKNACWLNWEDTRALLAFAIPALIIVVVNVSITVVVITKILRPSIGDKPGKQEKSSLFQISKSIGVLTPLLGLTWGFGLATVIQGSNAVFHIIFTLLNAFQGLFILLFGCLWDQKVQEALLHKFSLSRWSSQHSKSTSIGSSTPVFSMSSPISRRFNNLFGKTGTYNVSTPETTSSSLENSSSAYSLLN
Method: as §1, §2, §3

[4] = tested on: mCTFbax Y1158A, R1160A, W1165A, L1166A, T1240A; test: Calcium transient assay, alanine scan of ECLs in mCTFbax; assay type: cell-based, mouse; conditions: transiently transfected HEK293, Figure 4B
Method: Human and mouse GPR116 full-length constructs (hFL and mFL, respectively) have been described earlier, as well as the mouse CTF constructs (mCTF) with N-terminal mCherry or FLAG ([Brown et al., 2017]). […] Mutants of these constructs have been generated by site-directed mutagenesis using PCR-based techniques.
as §2

Row | activation of the human full-length receptor (in words) [1] | response of hCTFbax G1011K (in words) (hCTFbax G1011K) | Compound | activation of mCTF single alanine mutants, IP1 accumulation (in words) [2] | EC50 (uM) n=1 ([3]; independent experiment n=1 (mean of quadruplicate)) | EC50 (uM) n=2 ([3]; independent experiment n=2 (mean of quadruplicate)) | EC50 (uM) n=3 ([3]; independent experiment n=3 (mean of quadruplicate)) | activation of mCTFbax ECL alanine mutants (in words) [4]
1 | little to no effect | did not robustly respond | CCCC[C@H](NC(=O)[C@H](CC(C)C)NC(=O)[C@@H](NC(=O)[C@H](CO)NC(=O)[C@H](Cc1ccccc1)NC(=O)[C@H](CO)NC(=O)[C@@H]1CCCN1)[C@@H](C)CC)C(=O)N[C@@H](CO)C(=O)N1CCC[C@H]1C(=O)N[C@@H](CC(=O)O)C(=O)O [GAP10-Pro1] (H-PSFSIL[Nle]SPD-OH; N-terminus and C-terminus assumed) | – | – | – | – | –
2 | – | – | TSFSILMSPDSPDP [GAP14] | strongly activated the mutant receptors | 29.9 µM | 26.3 µM | 46.4 µM | unresponsive to GAP14-mediated activation
